System: histamine-induced nasal congestion model
Assay: Histamine-induced nasal congestion model in dogs, oral administration
Type: in vivo, Beagle dogs
Protocol: A histamine-induced nasal congestion model in dogs was performed according to the standard procedure [Tiniakov R. L., Tiniakova O. P., McLeod R. L., Hey J. A., Yeates D. B. Canine model of nasal congestion and allergic rhinitis//J Appl Physiol. 2003. V.94(5). P.1821-1828]. Beagle dogs were injected in the nasal cavity with a 5% histamine solution in a volume of 250 μl/nostril. The volume of the nasal cavity of the right and left nostrils was measured using a rhinometer before and 5, 10, 15, 20, 30, 40, 50 and 60 minutes after administration of histamine. Three experiments were performed, in which Compound I was administered orally once at different times: 1) 30 minutes before administration of histamine; 2) 1 hour before administration of histamine; and 3) 6 hours before administration of histamine, and one experiment was performed, in which Compound I was administered orally once daily for 14 days, the last administration was carried out 1 hour before administration of histamine.

[1] = oral 6 hours before histamine, 0.54 mg/kg, 40 minutes after histamine
[2] = oral 6 hours before histamine, 0.54 mg/kg, 50 minutes after histamine
[3] = oral 6 hours before histamine, 0.54 mg/kg, 60 minutes after histamine
[4] = oral 6 hours before histamine, 0.54 mg/kg, before histamine administration
[5] = oral for 14 days, 0.13 mg/kg, 5 minutes after histamine
[6] = oral for 14 days, 0.13 mg/kg, 10 minutes after histamine
[7] = oral for 14 days, 0.13 mg/kg, 15 minutes after histamine
[8] = oral for 14 days, 0.13 mg/kg, 20 minutes after histamine
[9] = oral for 14 days, 0.13 mg/kg, 30 minutes after histamine
[10] = oral for 14 days, 0.13 mg/kg, 40 minutes after histamine
[11] = oral for 14 days, 0.13 mg/kg, before histamine administration
[12] = oral for 14 days, 0.27 mg/kg, 5 minutes after histamine
[13] = oral for 14 days, 0.27 mg/kg, 10 minutes after histamine
[14] = oral for 14 days, 0.27 mg/kg, 15 minutes after histamine
[15] = oral for 14 days, 0.27 mg/kg, 20 minutes after histamine
[16] = oral for 14 days, 0.27 mg/kg, 30 minutes after histamine
[17] = oral for 14 days, 0.27 mg/kg, 40 minutes after histamine
[18] = oral for 14 days, 0.27 mg/kg, before histamine administration
[19] = oral for 14 days, 0.54 mg/kg, 5 minutes after histamine
[20] = oral for 14 days, 0.54 mg/kg, 10 minutes after histamine
[21] = oral for 14 days, 0.54 mg/kg, 15 minutes after histamine
[22] = oral for 14 days, 0.54 mg/kg, 20 minutes after histamine
[23] = oral for 14 days, 0.54 mg/kg, before histamine administration
[24] = oral once 30 minutes before histamine, 0.005 mg/kg, 5 minutes after histamine
[25] = oral once 30 minutes before histamine, 0.005 mg/kg, 10 minutes after histamine

With `O=C(CC(=O)NCCc1cnc[nH]1)NCCc1cnc[nH]1` [Compound I, N,N′-bis(2-(1H-imidazol-5-yl)ethyl)malonamide] the “Volume of the nasal cavity, left nostril” value [1] was 3.5 ± 0.1$ cm^3, the “Volume of the nasal cavity, right nostril” value (“Volume … right nostril” for short) [1] was 3.5 ± 0.1$ cm^3 and the “Volume of the nasal cavity, left nostril” value [2] was 2.9 ± 0.1$ cm^3. For the same molecule, the “Volume … right nostril” value [2] was 2.9 ± 0.2$ cm^3, the “Volume of the nasal cavity, left nostril” value [3] was 2.9 ± 0.1$ cm^3 and the “Volume … right nostril” value [3] was 3.0 ± 0.1$ cm^3. For the same molecule, the “Volume of the nasal cavity, left nostril” value [4] was 4.1 ± 0.2 cm^3, the “Volume … right nostril” value [4] was 4.1 ± 0.2 cm^3 and the “Volume of the nasal cavity, left nostril” value [5] was 2.7 ± 0.2$ cm^3. The “Volume … right nostril” value [5] was 2.7 ± 0.2$ cm^3, the “Volume of the nasal cavity, left nostril” value [6] was 3.2 ± 0.2*$ cm^3 and the “Volume … right nostril” value [6] was 3.3 ± 0.2*$ cm^3. For the same molecule, the “Volume of the nasal cavity, left nostril” value [7] was 2.5 ± 0.2*$ cm^3, the “Volume … right nostril” value [7] was 2.5 ± 0.1*$ cm^3 and the “Volume of the nasal cavity, left nostril” value [8] was 2.4 ± 0.2*$ cm^3. For the same molecule, the “Volume … right nostril” value [8] was 2.4 ± 0.2*$ cm^3, the “Volume of the nasal cavity, left nostril” value [9] was 3.2 ± 0.2*$ cm^3 and the “Volume … right nostril” value [9] was 3.2 ± 0.2*$ cm^3. The “Volume of the nasal cavity, left nostril” value [10] was 3.6 ± 0.2*$ cm^3, the “Volume … right nostril” value [10] was 3.6 ± 0.2$ cm^3 and the “Volume of the nasal cavity, left nostril” value [11] was 4.5 ± 0.1 cm^3. The “Volume … right nostril” value [11] was 4.5 ± 0.1 cm^3, the “Volume of the nasal cavity, left nostril” value [12] was 2.8 ± 0.2$ cm^3 and the “Volume … right nostril” value [12] was 2.7 ± 0.2$ cm^3. The “Volume of the nasal cavity, left nostril” value [13] was 3.6 ± 0.2*$ cm^3, the “Volume … right nostril” value [13] was 3.6 ± 0.2*$ cm^3 and the “Volume of the nasal cavity, left nostril” value [14] was 2.8 ± 0.3*$ cm^3. The “Volume … right nostril” value [14] was 2.8 ± 0.2*$ cm^3, the “Volume of the nasal cavity, left nostril” value [15] was 2.7 ± 0.1*$ cm^3 and the “Volume … right nostril” value [15] was 2.7 ± 0.2*$ cm^3. The “Volume of the nasal cavity, left nostril” value [16] was 3.3 ± 0.2*$ cm^3, the “Volume … right nostril” value [16] was 3.3 ± 0.1*$ cm^3 and the “Volume of the nasal cavity, left nostril” value [17] was 3.8 ± 0.2*$ cm^3. For the same molecule, the “Volume … right nostril” value [17] was 3.8 ± 0.2*$ cm^3, the “Volume of the nasal cavity, left nostril” value [18] was 4.5 ± 0.2 cm^3 and the “Volume … right nostril” value [18] was 4.5 ± 0.1 cm^3. For the same molecule, the “Volume of the nasal cavity, left nostril” value [19] was 3.1 ± 0.3$ cm^3, the “Volume … right nostril” value [19] was 2.7 ± 0.2$ cm^3 and the “Volume of the nasal cavity, left nostril” value [20] was 3.4 ± 0.2*$ cm^3. For the same molecule, the “Volume … right nostril” value [20] was 3.4 ± 0.1*$ cm^3, the “Volume of the nasal cavity, left nostril” value [21] was 2.6 ± 0.1*$ cm^3 and the “Volume … right nostril” value [21] was 2.6 ± 0.1*$ cm^3. The “Volume of the nasal cavity, left nostril” value [22] was 2.5 ± 0.2*$ cm^3, the “Volume … right nostril” value [22] was 2.5 ± 0.2*$ cm^3 and the “Volume of the nasal cavity, left nostril” value [23] was 4.4 ± 0.1 cm^3. For the same molecule, the “Volume … right nostril” value [23] was 4.5 ± 0.1 cm^3, the “Volume of the nasal cavity, left nostril” value [24] was 3.5 ± 0.2$ cm^3 and the “Volume … right nostril” value [24] was 3.4 ± 0.1$ cm^3. The “Volume of the nasal cavity, left nostril” value [25] was 2.6 ± 0.2$ cm^3, the “Volume … right nostril” value [25] was 2.5 ± 0.2$ cm^3 and the “Volume of the nasal cavity, left nostril” value (oral once 30 minutes before histamine, 0.005 mg/kg, 15 minutes after histamine) was 2.2 ± 0.2$^ cm^3.

From patent US11571411B2, “Use of a bisamide derivative of malonic acid for treating allergic and other diseases in humans and animals” (PHARMENTERPRISES ALLERGY LLC, priority 2018, dated 2023)
